Test results published in patent US11382985B2, “Anti-tumour immune responses to modified self-epitopes” (Scancell Limited, priority 2015, dated 2022).
Square brackets hold non-standard residues; d marks the D form. Ends that are not written are not given here. Cit = NC(=O)NCCC[C@H](N)C(=O)O

Experiments:
[1] = tested on: splenocytes; assay: Peptide immunisation and ex vivo Elispot, DP4 mice; type: in vivo, HHD/HLA-DP4 transgenic mouse
Method: C57BL/6 mice (Charles River, UK), HLA-DR4 mice (Taconic, USA), HHDII/DR1 mice (Pasteur institute, France) and the HHD/HLA-DP4 transgenic strain of mouse as described in patent WO2013/017545 A1 (EMMA repository, France) were used, aged between 8 and 12 weeks, and cared for by the staff at Nottingham Trent University. All work was carried out under a Home Office project licence. Peptides were dissolved in PBS to 1 mg/ml and then emulsified (a series of dilutions) with different adjuvants: CpG and MPLA 6 μg/mouse of each (Invivogen, UK), Incomplete Freund's 50 μl/mouse (Sigma, UK), poly I:C 10 μg/mouse (Invivogen, UK), Imiquimod 25 μg/mouse (Invivogen, UK) and GMCSF 10 μg/mouse (Peprotech, UK). Peptides (25 μg/mouse) were injected subcutaneously at the base of the tail. DNA (1 μg/mouse) was coated onto 1.0 μm gold particles (BioRad, Hemel Hempstead, UK) using the manufacturer's instructions and administered intradermally by genegun (BioRad). Homspera (10 nM/mouse) (PeptideSynthetics, UK) was injected intradermally with genegun immunisation. Mice were immunized at either day 0 for peptide immunisation or days, 0 and 7 for genegun immunisation, unless otherwise stated. Spleens were removed for analysis at day 14 for peptide and day 20 for peptide or genegun immunisation unless stated otherwise.
Elispot assays were performed using murine IFNγ, IL-17 and IL-10 capture and detection reagents according to the manufacturer's instructions (Mabtech, Sweden). In brief, anti-IFNγ, IL-17 and IL-10 antibodies were coated onto wells of 96-well Immobilin-P plate. Synthetic peptides (at a variety of concentrations) and 5×10^5 per well splenocytes were added to the wells of the plate in triplicate. Tumour target cells were added where relevant at 5×10^4/well in triplicate and plates incubated for 40 hrs at 37° C. After incubation, captured IFN and IL-10 were detected by biotinylated anti-IFNγ and IL-10 antibodies and developed with a streptavidin alkaline phosphatase and chromogenic substrate. Spots were analysed and counted using an automated plate reader (Cellular Technologies Ltd).

[2] = tested on: Pan02 DR4; assay: Pan02 DR4 pancreatic tumour challenge; type: in vivo, DR4 transgenic mice; settings: peptide immunisation 4 days after tumour challenge; none of unimmunized survived
[3] = DP4 mice immunised with human 241-260cit

VIGMDVAASEFF-CIT-SGKYDLD (VIGMDVAASEFF[Cit]SGKYDLD; listed as Homo sapiens) [Enolase 241cit]
IFNγ response in presence of CD4 blocking antibody [1, 3]: blocked | IFNγ response in presence of CD8 blocking antibody [1, 3]: not | IFNγ response to shorter peptide spanning aa241-255 [1, 3]: show cross reactivity | IL-10 in response to the cit peptide [1, 3]: no IL-10 | IFNγ response compared to the wild type peptides ([1]; DP4 mice, three doses of human Enolase 241cit, label = restimulating peptide): increased IFNγ responses | IFNγ response in combination with imiquimod ([1]; DP4 transgenic mice): induces IFNγ responses | IFNγ response in combination with poly I:C ([1]; DP4 transgenic mice): induces IFNγ responses | IL-10 response in combination with poly I:C ([1]; DP4 transgenic mice): no IL-10 | survival at day 60 [2]: 50%
